# Measurements: patent US10835533B2, “1 -((3S,4R)-4-(3-fluorophenyl)-1-(2-methoxyethyl)pyrrolidin-3-yl)-3-(4-methyl-3-(2-methylpyrimidin-5-yl)-1-phenyl-1H-pyrazol-5-yl)urea as a TrkA kinase inhibitor” (Array BioPharma Inc., priority 2014, dated 2020)
# Assay: IV clearance, 1 mg/kg IV, dog
# Format: in vivo
# Details: for clearance: male, Beagle, plasma, 1 mg/kg IV; for in vivo/in vitro correction factor: microsomal CLh divided by IV CL
# Experimental: In Table 1, the predicted human IV clearance values were calculated from compound concentration-versus-time data in plasma collected from pre-clinical species (mouse, rat, dog and monkey) following 1 mg/kg intravenous (IV) doses. Concentrations of compound in plasma were measured by LC-MS (liquid chromatography-mass spectrometry). AUCinf values (Area under the plasma concentration-time curve for a dosing interval from time 0 extrapolated to infinity) for individual Cp/t curves (concentration of the drug in plasma at any time t) were determined using linear-trapezoidal integration and first order extrapolation from terminal points of the Cp/t curves, and clearance (CL) was calculated using Dose/AUCinf.
# An IV dose formulation for delivery of a 1 mg/kg in 1 mL/kg dose volume was prepared as follow. The vehicle for the formulation was 20% Trappsol® (hydroxypropyl Beta cyclodextrin; CDT, Inc.) (aq) in water. A final volume of the vehicle was added to each of Compound 1, Compound 2, and Compound 3 (as dry compounds) and the mixture was stirred until a homogeneous solution was obtained. The pH of the final solution was 7. The solution was filtered using a 0.2 μM filter before delivering to the animal.
# Male Beagle dogs received a single intravenous dose following an overnight fast. Blood/plasma was collected (1.5 mL/timepoint) in K2EDTA blood collection tubes at the following time points post-dose: 0, 1, 5, 15, and 30 minutes, and 1, 2, 4, 8, 12, 24, and 48 hours, and mixed thoroughly. Blood samples were collected from the jugular, cephalic or saphenous veins from conscious animals. Blood samples were kept on ice until processed for plasma. Blood samples were centrifuged at 3200 RPM for 10 minutes at approximately 5° C. Plasma samples were directly transferred to 96-well plate tubes (MatrixTech, 0.75 mL). Rubber injectable caps were placed on the 96-well plate tubes. Plasma samples were stored at −20±5° C. until analyzed.
# A single 12-point calibration curve was prepared by first serially diluting (3-fold) a 40-μg/mL stock solution of Compound 1, Compound 2, and Compound 3 in DMSO to provide standard solutions. Plasma (20 μL) was then added to the extraction plate, and 2.5 μL of each standard solution was added to the naïve plasma. A stock solution of an internal standard (10.0 μL of 2.5 μg/mL in acetonitrile) subsequently was added to each standard and sample solution. Proteinaceous material was precipitated from 20 μL of plasma with the addition of 317.5 μL of acetonitrile for a total volume of 350 μL. Samples were vortex-mixed for 5 minutes and spun in an Allegra X-12R centrifuge (Beckman Coulter, Fullerton, Calif.) for 15 minutes at approximately 1,500×g at 4° C. A 100-μL aliquot of each supernatant was transferred via a 550 μL Personal Pipettor (Apricot Designs, Monrovia, Calif.) to 96-well plates and diluted 1:1 with HPLC grade water. The resulting plates were sealed with plate mats and the amount of Compound 1 n plasma was analyzed by LC-MS/MS.
# The LC-MS/MS system was comprised of an HTC-PAL autosampler (Leap Technologies, Inc., Carrboro, N.C.), an HP1100 HPLC (Agilent Technologies Inc., Santa Clara, Calif.), and an API4000 triple quadrupole mass spectrometer (Applied Biosystems, Foster City, Calif.). Chromatographic retention of the analyte and internal standard was achieved using a Phenomenex® Synergi 4μ Hydro-RP 80A column (2.1×30 mm, 4 μm particle size; Phenomenex, Torrance, Calif.) in conjunction with gradient conditions using mobile phases A (10 mM ammonium acetate in aqueous 0.1% formic acid and 1% isopropyl alcohol) and B (10 mM ammonium acetate in 89.9% acetonitrile, 10% methanol, 0.1% formic acid). The total run time, including re-equilibration time, for a single injection was 3.5 minutes and the flow rate was 0.8 mL/minute. Solvent B was increased from 5 to 95% in 1.0 minute, held at 95% for 1.0 minute, and then decreased to 5% in 0.1 minute. […]
SMILES,clearance [mL/min/kg],in vivo/in vitro correction factor
"COCCN1C[C@@H](NC(=O)Nc2c(C)c(-c3cnn(C)c3)nn2-c2ccccc2)[C@H](c2ccc(F)cc2)C1 [Compound 3, 1-(1′,4-dimethyl-1-phenyl-1H,1′H-[3,4′-bipyrazol]-5-yl)-3-((3S,4R)-4-(4-fluorophenyl)-1-(2-methoxyethyl)pyrrolidin-3-yl)urea]",18,1.28
"COCCN1C[C@@H](NC(=O)Nc2c(C)c(-c3cnc(C)nc3)nn2-c2ccccc2)[C@H](c2ccc(F)c(F)c2)C1 [Compound 2, 1-((3S,4R)-4-(3,4-difluorophenyl)-1-(2-methoxyethyl)pyrrolidin-3-yl)-3-(4-methyl-3-(2-methylpyrimidin-5-yl)-1-phenyl-1H-pyrazol-5-yl)urea]",25,1.04
"COCCN1C[C@@H](NC(=O)Nc2c(C)c(-c3cnc(C)nc3)nn2-c2ccccc2)[C@H](c2cccc(F)c2)C1 [Compound 1, 1-((3S,4R)-4-(3-fluorophenyl)-1-(2-methoxyethyl)pyrrolidin-3-yl)-3-(4-methyl-3-(2-methylpyrimidin-5-yl)-1-phenyl-1H-pyrazol-5-yl)urea]",7.6,3.16
